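Five compound concentrations were applied to cells in 96-well plates for 48 hours; endpoints were derived by simple linear interpolation of the resulting dose-response curve. Abbreviation: GI50, concentration required for 50% inhibition of growth. TGI denotes the concentration required for complete inhibition of growth.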
Key:
Experiment in all cases: NCI tumour cell line growth inhibition, 48 h
[1] = test system: 786-0 renal
[2] = test system: A549 NSCLC
[3] = test system: ACHN renal
[4] = test system: BT-549 breast
[5] = test system: CAKI-1 renal
[6] = test system: CCRF-CEM leukemia
[7] = test system: COLO 205 colon
[8] = test system: DU-145 prostate
[9] = test system: EKVX NSCLC
[10] = test system: HCT-116 colon
[11] = test system: HCT-15 colon
[12] = test system: HOP-62 NSCLC
[13] = test system: HOP-92 NSCLC
[14] = test system: HS 578T breast
[15] = test system: HT29 colon
[16] = test system: IGROV1 ovarian
[17] = test system: K-562 leukemia
[18] = test system: KM12 colon
[19] = test system: LOX IMVI melanoma
[20] = test system: M14 melanoma
[21] = test system: MALME-3M melanoma
[22] = test system: MCF7 breast
[23] = test system: MDA-MB-231 breast
[24] = test system: MDA-MB-435
[25] = test system: MOLT-4 leukemia
[26] = test system: NCI-H226 lung
[27] = test system: NCI-H23 lung
[28] = test system: NCI-H460 lung
[29] = test system: NCI-H522 lung
[30] = test system: NCI/ADR-RES ovarian
[31] = test system: OVCAR-4 ovarian
[32] = test system: OVCAR-5 ovarian
[33] = test system: OVCAR-8 ovarian
[34] = test system: PC-3 prostate
[35] = test system: RPMI-8226 leukemia
[36] = test system: SF-268 CNS
[37] = test system: SF-295 CNS
[38] = test system: SF-539 CNS
[39] = test system: SK-MEL-2 melanoma
[40] = test system: SK-MEL-28 melanoma
[41] = test system: SK-MEL-5 melanoma
[42] = test system: SK-OV-3 ovarian
[43] = test system: SN12C renal
[44] = test system: SNB-19 CNS
[45] = test system: SNB-75 CNS
[46] = test system: SR leukemia
[47] = test system: SW-620 colon
[48] = test system: T-47D breast
[49] = test system: TK-10 renal
[50] = test system: U251 CNS
[51] = test system: UACC-257 melanoma
[52] = test system: UACC-62 melanoma
[53] = test system: UO-31 renal
[54] = test system: HL-60(TB) leukemia
[55] = test system: OVCAR-3 ovarian
[56] = test system: RXF 393 renal
[57] = test system: A498 renal
[58] = test system: HCC-2998 colon

`CCCCCCCCCOC(=O)c1cnc(Cl)cn1` showed a TGI [1] greater than 100 µM, a TGI [2] of 64.8 µM and a TGI [3] of 33.5 µM. The TGI [4] was 63.3 µM, the TGI [5] was 31.8 µM and the TGI [6] was greater than 100 µM. It also gave a TGI [7] of 51.1 µM, a TGI [8] of 33.8 µM and a TGI [9] of 41.6 µM. It also gave a TGI [10] of 31.5 µM, a TGI [11] of 32 µM and a TGI [12] of 44.9 µM. It also gave a TGI [13] greater than 100 µM, a TGI [14] of 68 µM and a TGI [15] of 86.1 µM. It also gave a TGI [16] of 36 µM, a TGI [17] greater than 100 µM and a TGI [18] of 33.4 µM. For the same compound, the TGI [19] was 34.4 µM, the TGI [20] was 36.3 µM and the TGI [21] was 39.4 µM. For the same compound, the TGI [22] was 57.7 µM, the TGI [23] was 35.6 µM and the TGI [24] was 40.8 µM. It also gave a TGI [25] greater than 100 µM, a TGI [26] of 32.7 µM and a TGI [27] of 33 µM. It also gave a TGI [28] of 41.5 µM, a TGI [29] of 36.1 µM and a TGI [30] of 48.2 µM. The TGI [31] was 71.1 µM, the TGI [32] was 70.8 µM and the TGI [33] was 69.6 µM. The TGI [34] was 24 µM, the TGI [35] was 63.5 µM and the TGI [36] was 46.3 µM. The TGI [37] was 34.6 µM, the TGI [38] was 58.1 µM and the TGI [39] was 40.2 µM. For the same compound, the TGI [40] was 52.7 µM, the TGI [41] was 32.9 µM and the TGI [42] was greater than 100 µM. For the same compound, the TGI [43] was 36.9 µM, the TGI [44] was 47.5 µM and the TGI [45] was 51.5 µM. The TGI [46] was greater than 100 µM, the TGI [47] was 32.5 µM and the TGI [48] was 51.2 µM. The TGI [49] was 43.9 µM, the TGI [50] was 33.9 µM and the TGI [51] was 45.6 µM. For the same compound, the TGI [52] was 33.3 µM and the TGI [53] was 34.4 µM.
In the case of `Oc1ccc2ccccc2c1C=NCCCN=Cc1c(O)ccc2ccccc12`, the GI50 [1] is reported as 17.4 µM, the TGI [1] is reported as 40.7 µM and the GI50 [2] is reported as 32.1 µM. For the same compound, the TGI [2] was greater than 100 µM, the GI50 [3] was 5.73 µM and the TGI [3] was 34.9 µM. The GI50 [4] was 18.5 µM, the TGI [4] was 47.8 µM and the GI50 [5] was 15.7 µM. For the same compound, the TGI [5] was 49.5 µM, the GI50 [6] was 5.26 µM and the TGI [6] was 56.5 µM. The GI50 [7] was 15.9 µM, the TGI [7] was 31.1 µM and the GI50 [8] was 35.3 µM. For the same compound, the TGI [8] was greater than 100 µM, the GI50 [9] was 17.3 µM and the TGI [9] was greater than 100 µM. The GI50 [10] was 10 µM, the TGI [10] was 31.4 µM and the GI50 [11] was 5.13 µM. It also gave a TGI [11] of 28.5 µM, a GI50 [54] of 24.1 µM and a TGI [54] greater than 100 µM. It also gave a GI50 [12] of 22.6 µM, a TGI [12] of 47.4 µM and a GI50 [13] of 8.93 µM. For the same compound, the TGI [13] was 59.9 µM, the GI50 [14] was 8.05 µM and the TGI [14] was 36.7 µM. It also gave a GI50 [15] of 19.7 µM, a TGI [15] of 63.3 µM and a GI50 [16] of 28.1 µM. The TGI [16] was greater than 100 µM, the GI50 [18] was 15.1 µM and the TGI [18] was 36.2 µM. The GI50 [19] was 6.89 µM, the TGI [19] was 19.4 µM and the GI50 [20] was 7.94 µM. For the same compound, the TGI [20] was 23.1 µM, the GI50 [21] was 6.96 µM and the TGI [21] was 29.7 µM. The GI50 [22] was 17.1 µM, the TGI [22] was greater than 100 µM and the GI50 [23] was 11.6 µM. It also gave a TGI [23] of 30.2 µM, a GI50 [24] of 10.8 µM and a TGI [24] of 71.2 µM. The GI50 [25] was 10.3 µM, the TGI [25] was 56.9 µM and the GI50 [26] was 0.829 µM. The TGI [26] was 12.9 µM, the GI50 [27] was 3.13 µM and the TGI [27] was 13 µM. The GI50 [28] was 9.35 µM, the TGI [28] was greater than 100 µM and the GI50 [29] was 4.91 µM. The TGI [29] was 41.5 µM, the GI50 [30] was 14.6 µM and the TGI [30] was 49.4 µM. For the same compound, the GI50 [55] was 3.31 µM, the TGI [55] was 14.8 µM and the GI50 [31] was 35.9 µM. It also gave a TGI [31] greater than 100 µM, a GI50 [32] of 28.4 µM and a TGI [32] of 81.4 µM. For the same compound, the GI50 [33] was 32.4 µM, the TGI [33] was greater than 100 µM and the GI50 [34] was 21.6 µM. For the same compound, the TGI [34] was greater than 100 µM, the GI50 [35] was 4.11 µM and the TGI [35] was 31.1 µM. The GI50 [56] was 21.8 µM, the TGI [56] was 86.2 µM and the GI50 [36] was 16.3 µM. For the same compound, the TGI [36] was greater than 100 µM, the GI50 [37] was 9.96 µM and the TGI [37] was 42.1 µM. It also gave a GI50 [38] of 17.8 µM, a TGI [38] of 40.8 µM and a GI50 [39] of 12.6 µM. For the same compound, the TGI [39] was 37.2 µM, the GI50 [40] was 15.8 µM and the TGI [40] was greater than 100 µM. It also gave a GI50 [41] of 4.61 µM, a TGI [41] of 16 µM and a GI50 [42] of 24.8 µM. It also gave a TGI [42] of 67.5 µM, a GI50 [44] of 14.7 µM and a TGI [44] greater than 100 µM. The GI50 [47] was 12.1 µM, the TGI [47] was 61.8 µM and the GI50 [48] was 6.66 µM. The TGI [48] was 43 µM, the GI50 [49] was 24.4 µM and the TGI [49] was greater than 100 µM. For the same compound, the GI50 [50] was 3.8 µM, the TGI [50] was 15.2 µM and the GI50 [51] was 21.7 µM. It also gave a TGI [51] greater than 100 µM, a GI50 [52] of 4.27 µM and a TGI [52] of 16.8 µM. The GI50 [53] was 8.4 µM and the TGI [53] was 52.4 µM.
For `Cc1ccccc1NC(=O)NC(Oc1ccccc1)(C(F)(F)F)C(F)(F)F`, the TGI [1] was greater than 100 µM, the TGI [57] was greater than 100 µM and the TGI [3] was greater than 100 µM. For the same compound, the TGI [4] was greater than 100 µM, the TGI [5] was 97.5 µM and the TGI [6] was greater than 100 µM. The TGI [7] was greater than 100 µM, the TGI [58] was greater than 100 µM and the TGI [10] was greater than 100 µM. It also gave a TGI [54] greater than 100 µM, a TGI [14] greater than 100 µM and a TGI [15] greater than 100 µM. The TGI [16] was greater than 100 µM, the TGI [17] was greater than 100 µM and the TGI [20] was greater than 100 µM. For the same compound, the TGI [24] was greater than 100 µM, the TGI [25] was greater than 100 µM and the TGI [27] was greater than 100 µM. The TGI [30] was greater than 100 µM, the TGI [32] was greater than 100 µM and the TGI [35] was greater than 100 µM. It also gave a TGI [56] greater than 100 µM, a TGI [36] greater than 100 µM and a TGI [38] greater than 100 µM. The TGI [39] was greater than 100 µM, the TGI [40] was greater than 100 µM and the TGI [42] was greater than 100 µM. It also gave a TGI [44] greater than 100 µM, a TGI [45] greater than 100 µM and a TGI [46] greater than 100 µM. It also gave a TGI [48] greater than 100 µM, a TGI [50] greater than 100 µM and a TGI [51] greater than 100 µM. The TGI [53] was greater than 100 µM.
